Some results are limits rather than exact numbers.

In general, solubility (kinetic) refers to the concentration staying in solution when a stock, usually in DMSO, is diluted into the medium.

One data set deals with EP2. The data set can be described thus: EP2 gene expression in HaCaT after UVB radiation (q-PCR). The class given is cell-based, human. The following applies: UVB 80 mJ/cm^2, 24 hrs, dose-dependent. From the text: (§1) In the following Test Examples 6-1 and 6-2, using immortalized keratinocytes (HaCaT) and UVB to establish a model, after the compound to be test was applied to HaCaT, the expression levels of TNF-α, IL-8, IL-1β and EP2 were detected; using immortalized keratinocytes (HaCaT) and capsaicin to establish a model, after the compound to be test was applied to HaCaT, the expression level of TRPV1 was detected, so as to evaluate the soothing effect of the test substance from multiple dimensions.
(§2) • 1) Cell inoculation: HaCaT cells were inoculated into a 6-well plate at 6×10^5/well, cultured in an incubator (37°C, 5% CO2) for 12 hrs, and a normal control group (0 mJ/cm^2 + vehicle control), a model control group (80 mJ/cm^2 + vehicle control), a low concentration group (80 mJ/cm^2 + low concentration compound), a medium concentration group (80 mJ/cm^2 + medium concentration compound), and a high concentration group (80 mJ/cm^2 + high concentration compounds) were respectively provided. • 2) UVB modeling: The HaCaT cells were washed 3 times with D'Hanks before UVB radiation, 1 mL of D'Hanks was added into the wells, to make the cells to be immersed, and the control group was coated with tinfoil and placed in the dark. […]

A further data set relates to COL4A1. Put plainly: Collagen IV gene expression in HaCaT human immortalized keratinocytes. The class given is cell-based. As to conditions: 24 hrs, dose-dependent. From the text: (§3) Skin fragility is partly attributed to changes in hemidesmosomes and the expression downregulation of various collagen proteins (Collagen I, III, IV, VII) or laminins (such as LN-5) at the dermal-epidermal junction. LN-5 has been proven to be a component of anchoring fibers in the basement membrane of the skin, cornea, conjunctiva, and other tissues. LN-5 participates in cell-cell interactions through the mediation of integrins and proteoglycans, thereby playing a crucial role in cell adhesion, growth, migration, and differentiation. The appearance of wrinkles is closely related to the normal synthesis and expression of collagen and laminins. Therefore, the increase of the above collagen content and LN-5 can achieve a certain role in resisting wrinkles, and plays an important role in the aging process of the skin. Therefore, the anti-wrinkle effect of the compound to be tested was evaluated by detecting the level of Collage I protein of […] by ELISA, and detecting the transcription levels of epidermal cells (keratinocytes) III, IV, VII and LN -5 by Real-Time PCR. The following Test Examples 8-1 and 8-2 evaluated the anti-wrinkle efficacy of compounds using HaCaT human immortalized keratinocytes and HSF human skin fibroblasts. […]

Data set [1] relates to reactive oxygen species (ROS). The data set can be described thus: Zebrafish oxidative aging model (menadione), ROS content. The class given is in vivo. As to conditions: I-8 at 22.2 µg/mL, 22 hrs, 4 µM menadione; compared with the modeling group, statistical significance. The procedure: Experimental animal: Healthy wild-type AB strain zebrafish at 48 hpf (hours post-fertilization)
Healthy AB strain zebrafish were taken as experimental animal. A zebrafish oxidative aging model was constructed using chemical mutagenesis with 4 µM menadione as the modeling drug. Fucoxanthin was used as a positive control compound. After treating the zebrafish oxidative aging model with different concentrations of I-8 for 22 hrs, changes in the reactive oxygen species (ROS) content, β-galactosidase activity, and the expression of three antioxidant and anti-aging related genes (Cu/Zn-sod, Mn-sod, and ampk) were respectively detected and statistically analyzed.
During the experiment, the modeling drug, positive compound, and I-8 were dispersed together in the culture water of zebrafish. […] Cell ROX™ Deep Red fluorescent probes and β-galactosidase staining kits were used to specifically label ROS and β-galactosidase in the fish, respectively, and the staining intensity was quantified using Image-Pro Plus software. After extracting RNA from the whole fish, the expression changes of three genes (Cu/Zn-sod, Mn-sod, and ampk) in the fish were detected at the mRNA level using Quantitative Real-time PCR (RT-qPCR). The data were statistically analyzed using GraphPad software.

The next data set deals with COL3A1. Put plainly: Collagen III gene expression in HaCaT human immortalized keratinocytes. The following applies: 24 hrs, dose-dependent. The data set is classed as cell-based.
From the text: as §3

Data set [2] can be described thus: Kinetic solubility in aqueous buffer. The class given is physicochemical. As to conditions: 2 hrs at 25 °C. On the procedure: Experimental Methods: 30 µL of the 10 mM DMSO stock solution of the compound to be test was placed in a solubility sample plate (duplicate), 970 µL of aqueous buffer solution was added to the plate, and the plate was sealed with a sealing membrane and shaken at 1100 rpm for 2 hrs at 25 °C. The sample in the solubility plate was transferred to a filter plate, and filtered to obtain a filtrate. 10 µL of the filtrate was transferred into 980 µL of methanol along with 10 µL of DMSO, and then the solution was diluted 10-fold with methanol:water (1:1), and the resulting sample was analyzed by LC-MS/MS to obtain Area (filtered). Separately, 10 mM of the DMSO stock solution of the compound to be test was diluted to 300 µM with DMSO. 10 µL of this 300 µM DMSO solution and 10 µL of aqueous buffer solution were added into 980 µL of methanol, and then diluted 10-fold with methanol:water (1:1), and the resulting sample was analyzed by LC-MS/MS to obtain Area (std). The kinetic solubility was calculated according to the following formula: Solubility(μM) = (Areafiltered × DFfiltered)/(Areastd × DFstd) × [std] × DFstd [formula] wherein DF is the dilution factor.

The next data set deals with TNF-α. Put plainly: TNF-α gene expression in HaCaT after UVB radiation (q-PCR). The class given is cell-based, human. As to conditions: UVB 80 mJ/cm^2, 24 hrs, dose-dependent.
From the text: as §1, §2

In another data set the test system is COL7A1. Put plainly: Collagen VII gene expression in HaCaT human immortalized keratinocytes. The class given is cell-based. As to conditions: 24 hrs, dose-dependent.
From the text: as §3

Regarding `O=S1(=O)Oc2cc(O)ccc2-c2ccc(O)cc21` [Compound I-8], the “expression level of EP2” value in the data set with EP2 is “downregulating”. For the same molecule, the COL4A1 gene expression result with COL4A1 is “upregulate”. Further, in data set [1], the ROS content entry is reported as “downregulated”. Further, the COL341 gene expression result with COL3A1 is on record as “upregulate”. Moreover, the solubility (kinetic) at 2 h in data set [2] was > 300 µM. The “expression level of TNF-α” value in the data set with TNF-α was “downregulating”. For the same molecule, the COL7A1 gene expression entry in the data set on COL7A1 is recorded as “upregulate”.

Values taken from patent EP4803511A1, “SMALL MOLECULE COMPOUND HAVING SULFONIC ACID OR SULFINIC ACID LACTONE STRUCTURE, COMPOSITION AND USE THEREOF” (Hangzhou Phecdamed Co., Ltd., priority 2023, dated 2025).
